“Also recorded” adds a separate entry of the source. Square brackets hold non-standard residues; d marks the D form. Ends that are not written are not given here. Aib = CC(C)(N)C(=O)O
System: bacteria
Experiment: Binding of targeting peptides to microorganisms (Table 3)
Settings: preferably 1x PBS
[1] = microorganism the targeting peptide binds, binding in aqueous buffers that varied with peptide solubility
[2] = peptide binding in aqueous buffers that varied depending on peptide solubility
[3] = peptide binding in aqueous buffers varied by peptide solubility
[4] = microorganism bound by the targeting peptide, binding in aqueous buffers chosen by peptide solubility

## 1T-248 (IGGALNSCG; Peptide with targeting and/or antimicrobial activity) [Peptide 1T-248]
[1]
  Target(s): S. sanguinis

## PF-650 (IRSDQPGRQSRSSPRWPTGAGRHR; Peptide with targeting and/or antimicrobial activity)
[2]
  Target(s) (microorganism bound by the targeting peptide): Mycobacteria spp

## PF-491 (IHQYSSKPDIVGQEAKTVQQINS; Peptide with targeting and/or antimicrobial activity)
[2]
  Target(s) (microorganisms bound by the targeting peptide): S. mutans; also recorded: E. coli

## 1T-35 (EICLTLVFPIRGSYSEAAKFPVPIHIVEDGTVELPK; Peptide with targeting and/or antimicrobial activity) [Peptide 1T-35]
[3]
  Target(s) (microorganism bound by the targeting peptide): P. aeruginosa

## PF-295 (NIQVYESECGNYIFKKSDESFLIDIFDKNGTH; Peptide with targeting and/or antimicrobial activity)
[4]
  Target(s): C. difficile

## PF-384 (HISKERFEAY; Peptide with targeting and/or antimicrobial activity)
[4]
  Target(s): E. faecalis; also recorded: C. jeikeium; also recorded: C. jejuni

## PF-S018 (GMPQIPRLRI; Peptide with targeting and/or antimicrobial activity)
[2]
  Target(s) (microorganism bound by the targeting peptide): S. epidermidis and M. luteus and C. albicans and MRSA and E. faecalis and C. jeikeium and C. jejuni

## PF-778 (MNLILTAHGT; Peptide with targeting and/or antimicrobial activity)
[2]
  Target(s) (microorganism bound by the targeting peptide): Mycobacteria spp.

## PF-182 (LPATRDKTRVPASVAGAP; Peptide with targeting and/or antimicrobial activity)
[4]
  Target(s): S. epidermidis; also recorded: M. luteus; also recorded: E. coli; also recorded: E. faecalis; also recorded: C. jeikeium

## PF-793 (YTQ[Aib]NNASAYAMLLTNKDTVP; ends and bridges not checked)
[2]
  Target(s) (microorganism bound by the targeting peptide): S. mutans

## PF-781 (PLVVVNHRRAERSRG; Peptide with targeting and/or antimicrobial activity)
[2]
  Target(s) (microorganism bound by the targeting peptide): Mycobacteria spp.

## PF-786 (LSERERRRLKRGII; Peptide with targeting and/or antimicrobial activity)
[2]
  Target(s) (microorganism bound by the targeting peptide): Mycobacteria spp.

## PF-490 (RLILVSGNATVQK; Peptide with targeting and/or antimicrobial activity)
[2]
  Target(s) (microorganisms bound by the targeting peptide): S. mutans; also recorded: E. coli

## PF-751 (AESSPAQETT; Peptide with targeting and/or antimicrobial activity)
[2]
  Target(s) (microorganism bound by the targeting peptide): S. epidermidis; also recorded: E. coli; also recorded: C. albicans; also recorded: C. jeikeium

## PF-162 (GIRRLHSVENLNREISHRMAGLR; Peptide with targeting and/or antimicrobial activity)
[4]
  Target(s): S. epidermidis and MRSA

## PF-728 (AIGQEQDRREYYYYSGYPYYY; Peptide with targeting and/or antimicrobial activity)
[2]
  Target(s) (microorganism bound by the targeting peptide): S. mutans; also recorded: E. coli

## PF-S015 (IENLERGARRPP; Peptide with targeting and/or antimicrobial activity)
[2]
  Target(s) (microorganism bound by the targeting peptide): S. epidermidis and MRSA and C. jeikeium

## TT-307 (NGDKKAKEELDKWDEVIKELNIQF; Peptide with targeting and/or antimicrobial activity)
[1]
  Target(s): F. nucleatum

## 1T-53 (SDILAEMFEKGELQTLVKDAAAKANA; Peptide with targeting and/or antimicrobial activity) [Peptide 1T-53]
[3]
  Target(s) (microorganism bound by the targeting peptide): P. aeruginosa

## PF-161 (RGRALASTATTRPARRRR; Peptide with targeting and/or antimicrobial activity)
[4]
  Target(s): S. epidermidis; also recorded: M. luteus; also recorded: E. coli; also recorded: C. jejuni

## PF-705 (GEEEGTVAD; Peptide with targeting and/or antimicrobial activity)
[2]
  Target(s) (microorganism bound by the targeting peptide): S. mutans; also recorded: E. coli

Reference: patent US9597407B2, “Targeted antimicrobial moieties” (C3 Jian, Inc., priority 2009, dated 2017)
